Test results: ChEMBL document CHEMBL1201862, “PubChem BioAssay data set” (2004)
The source made the active and inactive calls.

Assays:
[1] = luciferase reporter signal suppression in cells – H4 neuroglioma cells, luminescence, dose response (AID 1990); type: functional, cell-based
[2] = Luminescence Cell-Based Dose Response HTS to Identify Inhibitors of 5'UTR Stem-Loop Driven Prion Protein mRNA Translation in H4 Neuroglioblastoma Cells. [Related pubchem assays: 1827 (Project Summary), 1813 (Primary HTS)]; type: functional
[3] = alpha-synuclein stem-loop luciferase translation blockers – H4 neuroglioma cells, luminescence, confirmation (AID 1988); type: functional, cell-based
[4] = molecular target: Luciferin 4-monooxygenase (Photinus pyralis, UniProt P08659); assay: inhibition of purified Photinus pyralis luciferase – biochemical, luminescence, dose response (AID 1891)
Sequence of Luciferin 4-monooxygenase (P08659 whole entry): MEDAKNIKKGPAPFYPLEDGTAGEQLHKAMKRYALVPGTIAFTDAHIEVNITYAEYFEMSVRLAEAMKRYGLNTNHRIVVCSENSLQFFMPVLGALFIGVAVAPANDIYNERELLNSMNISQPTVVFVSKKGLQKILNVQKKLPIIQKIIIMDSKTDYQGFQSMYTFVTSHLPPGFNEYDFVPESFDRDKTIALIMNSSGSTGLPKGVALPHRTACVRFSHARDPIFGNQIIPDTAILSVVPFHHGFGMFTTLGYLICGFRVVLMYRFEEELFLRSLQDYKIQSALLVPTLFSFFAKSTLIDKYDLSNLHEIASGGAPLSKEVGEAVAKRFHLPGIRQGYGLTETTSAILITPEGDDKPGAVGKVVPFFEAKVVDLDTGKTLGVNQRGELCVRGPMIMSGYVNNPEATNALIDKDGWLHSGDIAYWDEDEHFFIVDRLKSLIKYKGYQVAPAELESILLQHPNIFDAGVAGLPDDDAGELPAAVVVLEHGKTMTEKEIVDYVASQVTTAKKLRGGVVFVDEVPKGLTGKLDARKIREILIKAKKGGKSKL

[5] = Luminescence Cell-Based Dose Confirmation HTS to Identify Inhibitors of Platelet Dense Granule Release. [Related pubchem assays: 1663 (Primary HTS), 1678 (Summary of Project)]; type: functional
Streptokinase A = molecular target: T1, Streptokinase A (Streptococcus pyogenes serotype M1, UniProt P10520); assay: viability-normalized secreted streptokinase activity reduction – plasminogen activation absorbance, OD405, dose response (AID 1914); type: functional, Streptococcus pyogenes M1 GAS;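 also: secreted streptokinase activity via plasminogen activation per viability signal from cell pellet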
T1 sequence (P10520 whole entry): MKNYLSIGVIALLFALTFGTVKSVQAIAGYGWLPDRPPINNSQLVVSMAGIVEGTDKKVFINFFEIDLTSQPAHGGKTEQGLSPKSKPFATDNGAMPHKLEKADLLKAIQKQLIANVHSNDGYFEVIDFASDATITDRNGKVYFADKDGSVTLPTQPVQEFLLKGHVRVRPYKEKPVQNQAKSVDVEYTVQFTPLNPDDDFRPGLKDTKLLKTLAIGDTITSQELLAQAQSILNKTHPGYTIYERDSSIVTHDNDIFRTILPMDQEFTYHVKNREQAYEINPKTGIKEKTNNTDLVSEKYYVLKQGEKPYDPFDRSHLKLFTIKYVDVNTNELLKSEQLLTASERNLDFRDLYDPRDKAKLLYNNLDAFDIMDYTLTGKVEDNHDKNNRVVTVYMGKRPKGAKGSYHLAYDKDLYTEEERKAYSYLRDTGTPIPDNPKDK

[6] = test system: Streptococcus sp. 'group A'; assay: Streptococcus pyogenes SK(-)GAS viability under kanamycin – luminescence, BacTiterGlo, confirmation, counter-screen for streptokinase expression inhibitor project, dose response (AID 1900); type: functional, organism-based
Streptococcus = assay: GAS UMAA2166 growth inhibition – luminescence, BacTiterGlo, counter-screen for streptokinase expression inhibitor project, dose response (AID 1915); type: functional, organism-based;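 also: potency for reduction of bacterial viability or growth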
[7] = A Cell Based Secondary Assay To Explore Cytotoxicity of Compounds that Sensitize Mycobacterium Tuberculosis to Beta-Lactam Antibiotics.; type: functional
[8] = blockers of HIV-1 envelope-mediated cell-cell fusion – cherry-pick, dose response (AID 652057); type: functional, cell-based
[9] = blockers of HIV-1 ZM109 envelope-driven cell-cell fusion – HeLa effector, CEM target cells, luciferase, cherry-pick, dose response (AID 652058); type: functional, cell-based;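 also: luciferase signal from HIV-1 Env mediated cell-cell fusion of effector and target cells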
[10] = microbe, parasite or virus in culture; type: functional; settings: Mycobacterium tuberculosis
[11] = molecular target: T2, RNA-binding protein pos-1 (Caenorhabditis elegans, UniProt G5EF15); assay: disruptors of C. elegans POS-1 RNA interaction – biochemical, fluorescence polarization, dose response (AID 1964);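 also: purified POS-1 fused to maltose binding protein made in E. coli; potency of compounds blocking POS-1 binding to fluorescent RNA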
T2 sequence (G5EF15 whole entry): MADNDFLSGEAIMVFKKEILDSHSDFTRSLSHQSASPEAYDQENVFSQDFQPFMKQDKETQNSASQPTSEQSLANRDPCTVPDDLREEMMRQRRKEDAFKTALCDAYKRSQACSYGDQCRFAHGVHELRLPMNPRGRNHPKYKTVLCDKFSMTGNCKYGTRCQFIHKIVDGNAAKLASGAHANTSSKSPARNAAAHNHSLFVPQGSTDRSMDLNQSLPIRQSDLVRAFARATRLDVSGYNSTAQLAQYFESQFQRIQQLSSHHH

[12] = molecular target: T3, Zinc finger protein mex-5 (Caenorhabditis elegans, UniProt Q9XUB2); assay: potency of MEX-5 RNA-binding blockers – biochemical, C. elegans, fluorescence polarization, dose response (AID 1960)
T3 sequence (Q9XUB2 whole entry): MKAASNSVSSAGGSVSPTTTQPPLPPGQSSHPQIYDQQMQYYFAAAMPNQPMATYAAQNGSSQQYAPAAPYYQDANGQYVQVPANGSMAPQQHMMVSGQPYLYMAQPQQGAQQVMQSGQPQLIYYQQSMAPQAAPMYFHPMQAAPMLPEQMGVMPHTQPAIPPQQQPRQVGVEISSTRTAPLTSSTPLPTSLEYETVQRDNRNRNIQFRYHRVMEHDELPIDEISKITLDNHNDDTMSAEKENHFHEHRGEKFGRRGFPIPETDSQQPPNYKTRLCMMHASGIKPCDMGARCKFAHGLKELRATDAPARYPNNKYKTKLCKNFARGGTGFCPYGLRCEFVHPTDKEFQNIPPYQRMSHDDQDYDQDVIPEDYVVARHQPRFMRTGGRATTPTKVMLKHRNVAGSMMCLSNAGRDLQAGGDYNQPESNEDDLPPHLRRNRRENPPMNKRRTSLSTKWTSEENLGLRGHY

H9c2 = assay: cells; type: functional, cell-based; settings: Rattus norvegicus, H9c2, Myocardium;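 also: confirmatory concentration-response retest of ultra-high-throughput screening hits for modulation of myocardial damage; cell death induced by hydrogen peroxide oxidative stress; compound pretreatment for 60 min then peroxide exposure for 2 h; potency is for protecting the cells against peroxide damage rather than for killing them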
[13] = HIV-1 AD8 envelope cell-cell fusion blockers – cherry-pick, dose response (AID 652062); type: functional, cell-based;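 also: luciferase signal from cell-cell fusion driven by HIV-1 clade B AD8 Env; potency is for inhibitors of fusion seen as a drop in luminescence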
Cytochrome P450 2C19 = Cytochrome P450 2C19 (Homo sapiens, UniProt P33261); assay: Cytochrome panel assay with activity outcomes. Panel member name: p450-cyp2c19 Compounds with AC50 equal or less than 10 uM are considered active; type: functional; settings: read-out: AC50
Sequence of Cytochrome P450 2C19 (P33261 whole entry): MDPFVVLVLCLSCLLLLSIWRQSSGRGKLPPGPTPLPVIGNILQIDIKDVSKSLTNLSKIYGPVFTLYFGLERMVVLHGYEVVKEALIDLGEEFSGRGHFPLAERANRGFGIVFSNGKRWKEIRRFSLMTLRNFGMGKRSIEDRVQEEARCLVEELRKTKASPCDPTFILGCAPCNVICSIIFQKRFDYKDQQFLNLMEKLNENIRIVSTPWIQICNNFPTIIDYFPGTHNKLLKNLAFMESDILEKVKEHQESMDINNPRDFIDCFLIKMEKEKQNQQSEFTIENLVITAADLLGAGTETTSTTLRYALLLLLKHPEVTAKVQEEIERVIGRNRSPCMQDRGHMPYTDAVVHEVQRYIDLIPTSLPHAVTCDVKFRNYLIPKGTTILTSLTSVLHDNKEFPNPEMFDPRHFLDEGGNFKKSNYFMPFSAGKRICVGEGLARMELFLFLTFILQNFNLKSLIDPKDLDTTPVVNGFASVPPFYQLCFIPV

[14] = molecular target: T4, Heat shock factor protein 1 (Mus musculus, UniProt P38532); assay: decrease of HSF1-responsive luciferase luminescence – cell-based, NIH3T3, dose retest, confirmation (AID 2382); type: functional;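 also: NIH3T3 fibroblasts with HSF1-driven luciferase reporter stressed by proteasome inhibitor MG132; luminescence from HSF1-driven luciferase expression after 8 hours of MG132 stress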
T4 sequence (P38532 whole entry): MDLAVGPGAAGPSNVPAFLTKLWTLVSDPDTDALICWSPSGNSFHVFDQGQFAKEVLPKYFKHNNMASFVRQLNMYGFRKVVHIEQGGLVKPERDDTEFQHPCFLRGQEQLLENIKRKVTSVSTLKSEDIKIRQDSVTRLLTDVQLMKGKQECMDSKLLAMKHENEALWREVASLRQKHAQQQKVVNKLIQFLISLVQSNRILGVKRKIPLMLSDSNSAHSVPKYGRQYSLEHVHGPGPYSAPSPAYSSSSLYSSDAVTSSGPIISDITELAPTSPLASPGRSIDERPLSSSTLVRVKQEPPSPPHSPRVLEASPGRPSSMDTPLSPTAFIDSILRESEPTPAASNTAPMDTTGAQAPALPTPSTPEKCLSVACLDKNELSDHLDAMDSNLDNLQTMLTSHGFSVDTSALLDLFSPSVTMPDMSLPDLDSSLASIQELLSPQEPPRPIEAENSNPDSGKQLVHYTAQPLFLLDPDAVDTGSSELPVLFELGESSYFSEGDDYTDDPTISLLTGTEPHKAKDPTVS

[15] = molecular target: T5, Ubiquitin-conjugating enzyme E2 N (Homo sapiens, UniProt P61088); type: functional;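 also: Dose-response confirmation in a TR-FRET assay detecting UBC13-driven polyubiquitin chain formation, inhibition measured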
T5 sequence (P61088 whole entry): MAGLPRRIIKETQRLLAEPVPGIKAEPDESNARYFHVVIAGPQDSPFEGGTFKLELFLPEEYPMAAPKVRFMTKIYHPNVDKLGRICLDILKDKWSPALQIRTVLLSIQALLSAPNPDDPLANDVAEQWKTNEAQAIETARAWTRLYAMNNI

CC(C)c1nnc(NC(=O)CC(=O)Nc2ccccc2C(=O)O)s1
EC50 [1]: 16.3 µM (active) | EC50 [2]: 14.6 µM (active) | EC50 [3]: 11.3 µM (active)

Cc1cc(NC(=O)/C=C/c2ccccc2Cl)n(-c2nc3ccccc3[nH]2)n1
EC50 [4]: 3.94 µM (active) | EC50 [5]: 13.2 µM (active) | EC50 (Streptokinase A): > 150 µM (not active) | EC50 [6]: 7.03 µM (active) | EC50 (Streptococcus): > 150 µM (not active) | CC50 [7]: 14.5 µM (active)

COc1ccccc1-c1ccc2c(c1)O[C@H](CN(C)S(=O)(=O)c1ccccc1)[C@H](C)CN([C@H](C)CO)S2(=O)=O
AC50 [8]: 23.5 µM (active) | AC50 [9]: 51.3 µM (active)

CCOc1cc(/C=N\NC(=O)c2ccc(NC(=O)C(C)(C)C)cc2)ccc1OC(=O)c1ccc(C)cc1
CC50 [7]: > 40 µM (active)

CCOc1ccc2nc(NC(=O)C34CC5CC(CC(NC(C)=O)(C5)C3)C4)sc2c1
CC50 [10]: > 40 µM (active)

CCOc1ccc2c(c1)/C(=C(\C(Cl)=C(Cl)Cl)[N+](=O)[O-])N2
EC50 [11]: 68 µM (active) | EC50 [12]: 40.3 µM (active)

CC(=C/c1ccc(C(C)C)cc1)/C=N/NC(=O)c1ccncc1
IC50 (H9c2): > 79 µM (inactive)

CC(C)NC(=O)Nc1ccc2c(c1)C(=O)N([C@@H](C)CO)C[C@@H](C)[C@@H](CN(C)C(=O)Nc1ccc(F)cc1)OCCCC[C@@H](C)O2
AC50 [13]: 3.2 µM (active) | AC50 [8]: 2.79 µM (active) | AC50 [9]: 5.56 µM (active)

Oc1nc(-c2cccnc2)nc2ccccc12
IC50 (H9c2): 12.8 µM (active)

O=C(C1=C[C@@H](c2ccc(Br)cc2)C[C@@H](OCc2ccc(CO)cc2)O1)N1CCN(Cc2ccc3c(c2)OCO3)CC1
CC50 [7]: > 40 µM (active)

COc1ccc(-c2cc(C(F)(F)F)nc(SCC(=O)Nc3sc4c(c3C#N)CCC4)n2)cc1
CC50 [7]: > 40 µM (active)

C=CCSc1nnc(-c2cc3c(-c4ccccc4)nn(C)c3s2)n1C
AC50 (Cytochrome P450 2C19): 17.8 µM (inconclusive) | CC50 [7]: > 40 µM (active)

Cc1c(C(=O)NC(=S)Nc2ccccc2N2CCCC2)cccc1[N+](=O)[O-]
CC50 [7]: > 40 µM (active)

O=C(NNC(=O)c1ccccc1O)c1ccc(S(=O)(=O)Nc2ccccc2F)cc1
EC50 [11]: > 300 µM (not active) | EC50 [12]: > 300 µM (inconclusive)

COc1ccc(NC(=S)N(Cc2cccnc2)Cc2cc3cc(OC)c(OC)cc3nc2O)cc1
IC50 (H9c2): > 79 µM (inactive)

Cc1ccc(C)c(S(=O)(=O)N2CCN(C(=O)Cn3[nH]c(=O)c4ccccc4c3=O)CC2)c1
IC50 (H9c2): > 79 µM (inactive)

Cc1c(C#N)c(N)nc2c3c(sc12)NC(=O)CC3c1ccc(Cl)cc1 (stereo not given)
IC50 (H9c2): 28.2 µM (active)

Cc1ccc(-c2cc(-c3ccc(F)cc3)nc(N)c2C#N)o1
EC50 [1]: 17.1 µM (active) | EC50 [2]: > 120 µM (not active) | EC50 [3]: 49.7 µM (active)

COc1ccc(-c2cc(=O)oc3cc(OC(=O)C4CCCCC4)ccc23)cc1
IC50 (H9c2): 22 µM (active)

CC(=O)c1ccc(-c2[nH]c3ccccc3c2CCN2C(=O)c3ccccc3C2=O)cc1
IC50 (H9c2): > 79 µM (inactive)

O=C(Nc1cccc2cccnc12)c1ccc2sc([C@H]3C[C@H](O)[C@@H](CO)O3)nc2c1
IC50 (H9c2): 11 µM (active)

COc1ccc(NC(=O)c2cc(Cl)ccc2Cl)c([N+](=O)[O-])c1
EC50 [1]: > 120 µM (not active) | EC50 [2]: > 120 µM (not active) | EC50 [3]: > 120 µM (not active)

COC(=O)c1sccc1NC(=O)c1ccc(C)s1
EC50 [11]: > 300 µM (not active) | EC50 [12]: > 300 µM (not active)

Cc1ccc2[nH]c(O)c(N=Nc3ccccc3C)c2c1
EC50 [11]: > 300 µM (not active) | EC50 [14]: > 195 µM (not active) | EC50 [12]: > 300 µM (not active)

c1ccc(Sc2ccccc2CN2CCCC2)cc1
EC50 [1]: > 120 µM (not active) | EC50 [2]: > 120 µM (not active) | EC50 [3]: > 120 µM (not active)

C[C@H]1CN([C@@H](C)CO)C(=O)c2ccccc2-c2ccccc2CO[C@H]1CN(C)Cc1ccc(F)cc1
AC50 [13]: 0.857 µM (active) | AC50 [8]: < 0.285 µM (active) | AC50 [9]: < 0.285 µM (active)

COC(=O)c1sccc1NC(=O)C1CC2CCC1C2 (stereo not given)
EC50 [1]: > 120 µM (not active) | EC50 [2]: > 120 µM (not active) | EC50 [3]: > 120 µM (not active)

CCN1C(N(C)CCc2c[nH]c3ccccc23)=N[C@@H](c2cccc(C(F)(F)F)c2)C(C(=O)OC)=C1C
CC50 [10]: 14.3 µM (active) | IC50 [15]: > 20 µM (inactive)

O=[N+]([O-])c1ccc(Nc2nc(N/N=C/c3cccc(F)c3)nc(N3CCCC3)n2)cc1
IC50 (H9c2): > 79 µM (inactive)

Cn1nnnc1Sc1ncnc2scc(-c3ccccc3)c12
CC50 [7]: 30 µM (active)

O=C(NCCC1=CCCCC1)C1CCC(CNc2nc(S)nc3ccccc23)CC1 (stereo not given)
EC50 [1]: 9.48 µM (active) | EC50 [2]: > 120 µM (not active) | EC50 [3]: > 120 µM (not active)

Cc1ccccc1-n1nc2c(c1NC(=O)C1CCCC1)CS(=O)(=O)C2
EC50 [1]: > 120 µM (not active) | EC50 [2]: > 120 µM (not active) | EC50 [3]: > 120 µM (not active)

CCOC(=O)c1c(C)[nH]c(C)c1C(=O)COC(=O)/C=C/c1ccc(OC(F)F)cc1
CC50 [7]: > 40 µM (active)

Cc1ccc(N/C=C/C(=O)c2sc(-c3ccccc3)nc2C)cc1
EC50 [11]: 46.4 µM (inconclusive) | EC50 [12]: > 300 µM (not active)

CCOC(=O)c1ccc(NC(=O)CSc2nnc(-c3cccs3)n2CC)cc1
EC50 [1]: > 120 µM (not active) | EC50 [2]: > 120 µM (not active) | EC50 [3]: > 120 µM (not active)

O=[N+]([O-])c1ccc(-c2nc(Nc3ccc(O)cc3)c3ccccc3n2)cc1
IC50 (H9c2): > 79 µM (inactive)
